# According to ChEMBL document CHEMBL2406926, “C-Glucopyranosyl-1,2,4-triazoles As New Potent Inhibitors of Glycogen Phosphorylase” (ACS Med Chem Lett, 2013):
# Target: T1, Glycogen phosphorylase, muscle form (Oryctolagus cuniculus, UniProt P00489)
# T1 sequence (P00489 whole entry): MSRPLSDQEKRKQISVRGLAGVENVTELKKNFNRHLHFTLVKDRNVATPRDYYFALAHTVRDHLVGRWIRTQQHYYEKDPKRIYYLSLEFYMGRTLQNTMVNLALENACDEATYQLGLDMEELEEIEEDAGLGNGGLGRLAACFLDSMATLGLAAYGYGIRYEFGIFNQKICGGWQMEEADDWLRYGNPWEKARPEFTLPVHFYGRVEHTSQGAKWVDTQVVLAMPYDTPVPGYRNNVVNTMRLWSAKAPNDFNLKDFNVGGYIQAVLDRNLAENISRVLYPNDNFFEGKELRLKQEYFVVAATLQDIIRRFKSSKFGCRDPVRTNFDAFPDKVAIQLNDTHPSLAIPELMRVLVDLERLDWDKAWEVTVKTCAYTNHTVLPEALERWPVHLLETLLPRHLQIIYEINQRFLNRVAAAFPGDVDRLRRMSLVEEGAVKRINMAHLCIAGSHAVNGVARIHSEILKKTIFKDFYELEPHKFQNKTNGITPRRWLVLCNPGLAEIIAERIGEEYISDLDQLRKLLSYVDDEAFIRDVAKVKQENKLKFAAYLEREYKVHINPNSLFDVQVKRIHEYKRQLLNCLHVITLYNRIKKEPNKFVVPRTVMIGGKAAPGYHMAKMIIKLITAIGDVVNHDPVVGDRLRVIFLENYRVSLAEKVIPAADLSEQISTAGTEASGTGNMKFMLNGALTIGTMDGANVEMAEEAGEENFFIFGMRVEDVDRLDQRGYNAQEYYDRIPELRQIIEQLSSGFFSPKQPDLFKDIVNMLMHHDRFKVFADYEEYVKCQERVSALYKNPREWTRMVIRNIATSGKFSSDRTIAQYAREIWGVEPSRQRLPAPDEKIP
# Experiment: Competitive inhibition of rabbit muscle glycogen phosphorylase b
# Design: species or system Muscle tissue
row,Structure (SMILES),Ki [µM]
1,OC[C@H]1O[C@@H](c2nnc(-c3ccccc3)[nH]2)[C@H](O)[C@@H](O)[C@@H]1O,7
2,OC[C@H]1O[C@@H](c2nc(-c3ccc4ccccc4c3)n[nH]2)[C@H](O)[C@@H](O)[C@@H]1O,0.41
3,OCc1n[nH]c([C@@H]2O[C@H](CO)[C@@H](O)[C@H](O)[C@H]2O)n1,105
